# Values quoted from earlier work as cited in patent publication US20220289809A1, “USE OF RELAXIN TO TREAT ATRIAL FIBRILLATION” (University of Pittsburgh - Of the Commonwealth System of …, priority 2012, published 2022).
# System: CHF canine model
compound,measurement,value
Cc1ccc(=O)n(-c2ccccc2)c1 [Pirfenidone],atrial CV,did not generate a significantly greater increase in atrial CV
same,fibrosis and AF,reverse fibrosis and attenuate AF
